In patent US12144506B2, “Methods for aneurysm treatment” (Nectero Medical, Inc., priority 2018, dated 2024):

Experiment: safe delivery concentration of PGG as a function of its purity
Settings: PGG of the stated purity; toxic impurities gallic acid and methyl gallate
Excerpt: The concentrations of PGG which may be safely delivered to a patient may be generally proportional to the purity of the PGG. For example, gallic acid, depicted in FIG. 1B, and methyl gallate, depicted in FIG. 1C, are common cytotoxic impurities which may be removed from a source batch of PGG during the purification process. Eliminating the presence of or reducing the concentration of toxic impurities from the delivered PGG may allow higher concentrations of the PGG to be delivered due to the mitigation of the toxic side effects of impurities commonly found in isolated PGG. For instance, studies have shown that substantially 100% pure PGG may be safely delivered at concentrations up to approximately 0.330% (w/v), 95% pure PGG may be safely delivered at concentrations up to approximately 0.125% (w/v), and 85% pure PGG may be safely delivered at concentrations up to approximately 0.06% (w/v). Delivery of PGG in higher concentrations may enhance the amount of uptake of PGG by the target tissue which may increase the efficacy of the PGG treatment. Delivery of PGG in higher concentrations may increase the rate of uptake of PGG by the tissue allowing the same amount of uptake in shorter delivery times. […]

Substance | concentration up to which PGG may be safely delivered
1,2,3,4,6-pentagalloyl glucose [85% pure PGG] | ≤ 0.06 % (w/v)
1,2,3,4,6-pentagalloyl glucose [substantially 100% pure PGG] | ≤ 0.330 % (w/v)
